This passage reports inhibition results from ChEMBL document CHEMBL5442219.

Settings in all cases: Compound concentration 10 µM
Experiment [1] has as its target 5-hydroxytryptamine receptor 1B (Homo sapiens) (UniProt P28222).
Description: PDSP Primary Binding target: HTR1B - Compounds are tested at 10 uM concentration, plate are incubated at room temperature in the dark for 90 minutes. Reaction are stopped by vacuum filtration onto 0.3% polyethyleneimine soaked filter mats using Filtermate harvester. Scintilation cocktail is then melted onto microwave-dried filters on a hot plate and the radio activity is counted in Microbia counter.
The target of experiment [2] is Beta-2 adrenergic receptor (Homo sapiens) (UniProt P07550).
Description: PDSP Primary Binding target: ADRB2 - Compounds are tested at 10 uM concentration, plate are incubated at room temperature in the dark for 90 minutes. Reaction are stopped by vacuum filtration onto 0.3% polyethyleneimine soaked filter mats using Filtermate harvester. Scintilation cocktail is then melted onto microwave-dried filters on a hot plate and the radio activity is counted in Microbia counter.
Experiment [3] deals with 5-hydroxytryptamine receptor 2A (Homo sapiens) (UniProt P28223).
Description: PDSP Primary Binding target: HTR2A - Compounds are tested at 10 uM concentration, plate are incubated at room temperature in the dark for 90 minutes. Reaction are stopped by vacuum filtration onto 0.3% polyethyleneimine soaked filter mats using Filtermate harvester. Scintilation cocktail is then melted onto microwave-dried filters on a hot plate and the radio activity is counted in Microbia counter.
For experiment [4], the target named is Kappa-type opioid receptor (Homo sapiens) (UniProt P41145).
Description: PDSP Primary Binding target: OPRK1 - Compounds are tested at 10 uM concentration, plate are incubated at room temperature in the dark for 90 minutes. Reaction are stopped by vacuum filtration onto 0.3% polyethyleneimine soaked filter mats using Filtermate harvester. Scintilation cocktail is then melted onto microwave-dried filters on a hot plate and the radio activity is counted in Microbia counter.
In experiment [5] the target is T1, Alpha-1B adrenergic receptor (Homo sapiens) (UniProt P35368).
T1 sequence (whole entry): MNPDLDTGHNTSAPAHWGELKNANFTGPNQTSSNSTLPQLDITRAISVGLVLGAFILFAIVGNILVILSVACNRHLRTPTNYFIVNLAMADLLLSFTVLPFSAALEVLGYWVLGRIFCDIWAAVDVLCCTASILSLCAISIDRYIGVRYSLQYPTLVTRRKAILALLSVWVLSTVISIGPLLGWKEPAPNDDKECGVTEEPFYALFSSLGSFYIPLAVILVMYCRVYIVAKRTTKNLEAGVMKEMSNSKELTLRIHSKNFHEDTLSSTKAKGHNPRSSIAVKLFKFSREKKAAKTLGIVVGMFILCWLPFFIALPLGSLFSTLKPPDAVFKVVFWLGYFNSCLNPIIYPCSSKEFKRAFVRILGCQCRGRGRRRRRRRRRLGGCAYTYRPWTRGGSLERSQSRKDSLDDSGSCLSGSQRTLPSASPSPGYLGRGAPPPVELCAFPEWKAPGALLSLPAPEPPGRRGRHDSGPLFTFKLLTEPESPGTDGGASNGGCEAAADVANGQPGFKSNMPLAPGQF
Description: PDSP Primary Binding target: ADRA1B - Compounds are tested at 10 uM concentration, plate are incubated at room temperature in the dark for 90 minutes. Reaction are stopped by vacuum filtration onto 0.3% polyethyleneimine soaked filter mats using Filtermate harvester. Scintilation cocktail is then melted onto microwave-dried filters on a hot plate and the radio activity is counted in Microbia counter.

For experiment [6], the target named is T2, D(4) dopamine receptor (Homo sapiens) (UniProt P21917).
T2 sequence (whole entry): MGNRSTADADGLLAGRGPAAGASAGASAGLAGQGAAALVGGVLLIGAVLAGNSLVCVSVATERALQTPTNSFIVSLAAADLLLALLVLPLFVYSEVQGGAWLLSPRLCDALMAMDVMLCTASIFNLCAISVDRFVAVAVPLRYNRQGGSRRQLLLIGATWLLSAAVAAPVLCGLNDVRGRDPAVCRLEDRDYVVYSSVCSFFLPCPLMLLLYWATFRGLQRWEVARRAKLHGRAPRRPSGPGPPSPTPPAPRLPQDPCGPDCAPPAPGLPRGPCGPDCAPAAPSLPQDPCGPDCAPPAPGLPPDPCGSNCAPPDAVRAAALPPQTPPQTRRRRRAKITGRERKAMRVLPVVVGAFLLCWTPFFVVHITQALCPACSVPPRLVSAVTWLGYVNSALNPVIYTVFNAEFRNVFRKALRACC
Description: PDSP Primary Binding target: DRD4 - Compounds are tested at 10 uM concentration, plate are incubated at room temperature in the dark for 90 minutes. Reaction are stopped by vacuum filtration onto 0.3% polyethyleneimine soaked filter mats using Filtermate harvester. Scintilation cocktail is then melted onto microwave-dried filters on a hot plate and the radio activity is counted in Microbia counter.

Experiment [7] concerns the target Histamine H3 receptor (Homo sapiens) (UniProt Q9Y5N1).
Description: PDSP Primary Binding target: HRH3 - Compounds are tested at 10 uM concentration, plate are incubated at room temperature in the dark for 90 minutes. Reaction are stopped by vacuum filtration onto 0.3% polyethyleneimine soaked filter mats using Filtermate harvester. Scintilation cocktail is then melted onto microwave-dried filters on a hot plate and the radio activity is counted in Microbia counter.
For experiment [8], the target named is T3, Alpha-1D adrenergic receptor (Homo sapiens) (UniProt P25100).
T3 sequence (whole entry): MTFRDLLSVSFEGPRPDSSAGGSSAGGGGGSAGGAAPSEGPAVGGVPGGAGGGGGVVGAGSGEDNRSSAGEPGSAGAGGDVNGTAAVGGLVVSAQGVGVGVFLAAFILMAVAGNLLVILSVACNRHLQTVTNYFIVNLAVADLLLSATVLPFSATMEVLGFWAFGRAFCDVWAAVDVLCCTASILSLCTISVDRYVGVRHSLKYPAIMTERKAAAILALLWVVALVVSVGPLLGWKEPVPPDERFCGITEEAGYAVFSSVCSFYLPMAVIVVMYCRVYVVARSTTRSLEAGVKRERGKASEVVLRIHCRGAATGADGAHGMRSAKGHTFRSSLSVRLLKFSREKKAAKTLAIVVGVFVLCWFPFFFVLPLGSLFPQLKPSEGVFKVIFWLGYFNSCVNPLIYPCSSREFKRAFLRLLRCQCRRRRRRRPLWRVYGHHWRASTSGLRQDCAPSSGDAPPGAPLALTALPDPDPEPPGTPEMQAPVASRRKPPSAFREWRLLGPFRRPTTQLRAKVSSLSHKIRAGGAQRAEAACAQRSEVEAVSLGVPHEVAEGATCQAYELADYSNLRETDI
Description: PDSP Primary Binding target: ADRA1D - Compounds are tested at 10 uM concentration, plate are incubated at room temperature in the dark for 90 minutes. Reaction are stopped by vacuum filtration onto 0.3% polyethyleneimine soaked filter mats using Filtermate harvester. Scintilation cocktail is then melted onto microwave-dried filters on a hot plate and the radio activity is counted in Microbia counter.

The target of experiment [9] is Beta-1 adrenergic receptor (Homo sapiens) (UniProt P08588).
Description: PDSP Primary Binding target: ADRB1 - Compounds are tested at 10 uM concentration, plate are incubated at room temperature in the dark for 90 minutes. Reaction are stopped by vacuum filtration onto 0.3% polyethyleneimine soaked filter mats using Filtermate harvester. Scintilation cocktail is then melted onto microwave-dried filters on a hot plate and the radio activity is counted in Microbia counter.
Experiment [10] deals with D(3) dopamine receptor (Homo sapiens) (UniProt P35462).
Description: PDSP Primary Binding target: DRD3 - Compounds are tested at 10 uM concentration, plate are incubated at room temperature in the dark for 90 minutes. Reaction are stopped by vacuum filtration onto 0.3% polyethyleneimine soaked filter mats using Filtermate harvester. Scintilation cocktail is then melted onto microwave-dried filters on a hot plate and the radio activity is counted in Microbia counter.
The target of experiment [11] is T4, 5-hydroxytryptamine receptor 1A (Homo sapiens) (UniProt P08908).
T4 sequence (whole entry): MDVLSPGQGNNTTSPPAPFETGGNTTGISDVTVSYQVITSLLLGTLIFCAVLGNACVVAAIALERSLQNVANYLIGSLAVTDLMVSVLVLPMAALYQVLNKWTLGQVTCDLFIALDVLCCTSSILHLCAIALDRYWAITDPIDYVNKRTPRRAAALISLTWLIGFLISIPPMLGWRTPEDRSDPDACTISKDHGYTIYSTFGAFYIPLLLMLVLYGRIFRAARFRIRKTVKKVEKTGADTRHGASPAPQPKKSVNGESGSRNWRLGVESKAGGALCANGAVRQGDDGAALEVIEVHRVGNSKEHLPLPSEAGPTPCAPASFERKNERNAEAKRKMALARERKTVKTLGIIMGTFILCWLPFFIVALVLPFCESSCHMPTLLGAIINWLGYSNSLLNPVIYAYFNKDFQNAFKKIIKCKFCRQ
Description: PDSP Primary Binding target: HTR1A - Compounds are tested at 10 uM concentration, plate are incubated at room temperature in the dark for 90 minutes. Reaction are stopped by vacuum filtration onto 0.3% polyethyleneimine soaked filter mats using Filtermate harvester. Scintilation cocktail is then melted onto microwave-dried filters on a hot plate and the radio activity is counted in Microbia counter.

The target of experiment [12] is D(1B) dopamine receptor (Homo sapiens) (UniProt P21918).
Description: PDSP Primary Binding target: DRD5 - Compounds are tested at 10 uM concentration, plate are incubated at room temperature in the dark for 90 minutes. Reaction are stopped by vacuum filtration onto 0.3% polyethyleneimine soaked filter mats using Filtermate harvester. Scintilation cocktail is then melted onto microwave-dried filters on a hot plate and the radio activity is counted in Microbia counter.

Each structure is given as a SMILES string.

Chain of Histamine H3 receptor (Homo sapiens) (Q9Y5N1 whole entry): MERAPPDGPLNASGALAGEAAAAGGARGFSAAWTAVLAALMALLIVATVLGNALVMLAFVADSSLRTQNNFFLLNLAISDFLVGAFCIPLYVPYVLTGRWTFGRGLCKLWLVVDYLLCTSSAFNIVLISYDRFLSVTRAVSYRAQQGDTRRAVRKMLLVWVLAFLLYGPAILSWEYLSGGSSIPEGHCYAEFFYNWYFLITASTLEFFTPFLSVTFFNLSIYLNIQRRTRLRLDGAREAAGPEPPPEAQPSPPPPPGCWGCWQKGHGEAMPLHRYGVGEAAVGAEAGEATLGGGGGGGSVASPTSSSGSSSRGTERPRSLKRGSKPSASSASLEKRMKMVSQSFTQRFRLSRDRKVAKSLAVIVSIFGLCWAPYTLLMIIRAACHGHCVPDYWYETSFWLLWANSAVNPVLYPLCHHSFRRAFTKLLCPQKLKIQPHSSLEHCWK
Chain of D(1B) dopamine receptor (Homo sapiens) (P21918 whole entry): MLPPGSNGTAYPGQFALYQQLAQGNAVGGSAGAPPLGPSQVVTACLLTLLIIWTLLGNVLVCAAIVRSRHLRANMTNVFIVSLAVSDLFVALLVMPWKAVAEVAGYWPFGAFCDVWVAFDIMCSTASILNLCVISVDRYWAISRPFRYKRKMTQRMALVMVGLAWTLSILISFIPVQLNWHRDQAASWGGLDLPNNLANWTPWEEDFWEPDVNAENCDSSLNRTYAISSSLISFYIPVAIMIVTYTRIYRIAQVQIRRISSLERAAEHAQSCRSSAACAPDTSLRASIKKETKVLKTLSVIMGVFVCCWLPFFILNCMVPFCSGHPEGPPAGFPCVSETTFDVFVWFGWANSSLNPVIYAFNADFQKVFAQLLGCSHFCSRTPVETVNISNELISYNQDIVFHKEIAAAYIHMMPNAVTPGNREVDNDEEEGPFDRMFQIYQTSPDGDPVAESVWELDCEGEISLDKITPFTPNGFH
Chain of 5-hydroxytryptamine receptor 1B (Homo sapiens) (P28222 whole entry): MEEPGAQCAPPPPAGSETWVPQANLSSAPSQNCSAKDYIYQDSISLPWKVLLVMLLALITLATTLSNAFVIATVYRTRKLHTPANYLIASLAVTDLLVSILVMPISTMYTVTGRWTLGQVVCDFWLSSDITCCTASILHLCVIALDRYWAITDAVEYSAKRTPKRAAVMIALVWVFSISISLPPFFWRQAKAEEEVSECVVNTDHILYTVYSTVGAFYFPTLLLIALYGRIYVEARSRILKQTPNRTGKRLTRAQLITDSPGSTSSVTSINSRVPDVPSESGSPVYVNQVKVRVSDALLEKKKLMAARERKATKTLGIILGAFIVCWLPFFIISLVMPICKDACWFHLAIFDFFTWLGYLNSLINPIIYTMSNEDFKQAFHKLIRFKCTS
Chain of Beta-2 adrenergic receptor (Homo sapiens) (P07550 whole entry, looked up): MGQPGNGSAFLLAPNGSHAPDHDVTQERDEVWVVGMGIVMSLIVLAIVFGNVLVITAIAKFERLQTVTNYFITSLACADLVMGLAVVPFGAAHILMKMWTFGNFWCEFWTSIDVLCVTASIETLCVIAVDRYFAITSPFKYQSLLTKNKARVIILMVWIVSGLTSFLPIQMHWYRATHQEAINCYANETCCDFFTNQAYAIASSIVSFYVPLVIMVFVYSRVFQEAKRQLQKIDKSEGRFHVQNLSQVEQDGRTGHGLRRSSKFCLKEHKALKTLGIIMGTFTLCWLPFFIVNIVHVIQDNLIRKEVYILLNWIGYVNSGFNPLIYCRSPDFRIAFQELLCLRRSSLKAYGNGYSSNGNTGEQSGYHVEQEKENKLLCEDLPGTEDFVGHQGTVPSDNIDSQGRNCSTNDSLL
Chain of 5-hydroxytryptamine receptor 2A (Homo sapiens) (P28223 whole entry): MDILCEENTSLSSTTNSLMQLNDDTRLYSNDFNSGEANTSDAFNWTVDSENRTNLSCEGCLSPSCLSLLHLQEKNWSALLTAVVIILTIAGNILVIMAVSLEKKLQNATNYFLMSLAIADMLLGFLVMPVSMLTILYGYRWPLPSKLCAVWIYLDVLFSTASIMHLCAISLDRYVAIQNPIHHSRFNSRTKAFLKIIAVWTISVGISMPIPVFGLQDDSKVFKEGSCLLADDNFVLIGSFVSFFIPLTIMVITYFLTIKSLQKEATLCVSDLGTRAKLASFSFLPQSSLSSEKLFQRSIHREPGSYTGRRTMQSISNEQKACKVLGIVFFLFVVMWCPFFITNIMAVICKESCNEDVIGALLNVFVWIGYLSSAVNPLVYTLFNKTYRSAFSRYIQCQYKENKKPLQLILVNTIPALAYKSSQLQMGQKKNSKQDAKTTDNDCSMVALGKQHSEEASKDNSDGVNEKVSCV
Chain of D(3) dopamine receptor (Homo sapiens) (P35462 whole entry): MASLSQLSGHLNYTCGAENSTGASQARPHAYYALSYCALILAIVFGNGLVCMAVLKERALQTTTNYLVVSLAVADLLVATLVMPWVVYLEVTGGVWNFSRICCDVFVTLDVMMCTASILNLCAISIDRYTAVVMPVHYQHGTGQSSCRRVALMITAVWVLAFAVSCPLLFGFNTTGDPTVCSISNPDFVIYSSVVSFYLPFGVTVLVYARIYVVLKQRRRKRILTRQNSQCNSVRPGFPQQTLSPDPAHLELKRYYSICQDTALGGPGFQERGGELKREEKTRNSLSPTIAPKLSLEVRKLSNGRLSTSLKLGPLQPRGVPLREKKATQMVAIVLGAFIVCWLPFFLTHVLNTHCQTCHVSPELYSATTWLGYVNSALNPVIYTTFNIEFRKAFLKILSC
Chain of Beta-1 adrenergic receptor (Homo sapiens) (P08588 whole entry, looked up): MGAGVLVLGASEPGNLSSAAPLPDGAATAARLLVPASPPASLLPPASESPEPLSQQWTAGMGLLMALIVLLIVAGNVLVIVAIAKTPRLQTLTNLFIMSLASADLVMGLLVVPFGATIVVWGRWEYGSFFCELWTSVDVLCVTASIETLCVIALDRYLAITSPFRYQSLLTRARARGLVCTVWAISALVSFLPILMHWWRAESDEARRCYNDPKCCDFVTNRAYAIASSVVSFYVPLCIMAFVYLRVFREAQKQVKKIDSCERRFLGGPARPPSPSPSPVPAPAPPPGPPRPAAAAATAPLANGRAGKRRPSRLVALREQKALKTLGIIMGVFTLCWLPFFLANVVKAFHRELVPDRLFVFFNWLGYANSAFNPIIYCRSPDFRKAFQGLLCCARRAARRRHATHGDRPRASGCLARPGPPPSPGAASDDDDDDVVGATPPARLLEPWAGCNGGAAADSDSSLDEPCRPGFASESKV
Chain of Kappa-type opioid receptor (Homo sapiens) (P41145 whole entry): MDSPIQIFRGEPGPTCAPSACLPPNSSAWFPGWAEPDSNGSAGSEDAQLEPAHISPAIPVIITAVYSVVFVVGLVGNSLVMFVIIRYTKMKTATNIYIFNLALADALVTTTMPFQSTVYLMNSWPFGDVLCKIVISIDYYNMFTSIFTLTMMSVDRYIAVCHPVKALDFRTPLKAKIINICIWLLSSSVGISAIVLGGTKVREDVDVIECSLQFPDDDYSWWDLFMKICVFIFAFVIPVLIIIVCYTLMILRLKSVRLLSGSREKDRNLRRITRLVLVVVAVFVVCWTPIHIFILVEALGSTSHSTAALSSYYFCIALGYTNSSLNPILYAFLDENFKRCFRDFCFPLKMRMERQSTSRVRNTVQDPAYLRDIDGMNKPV

As to `Cc1c(OCc2cccc(-c3ccc(C(=O)O)cc3)c2)cc2c(c1C)C(=O)C(C1CCCC1)C2` (stereo not drawn), the inhibition – broadly, the relative decrease from the control value, in per cent – is 4.33% in experiment [1]; -5.2% in [2]; 6.01% in experiment [3]; -0.11% in experiment [4]; 63.1% in experiment [5]; 44% in experiment [6]. Moreover, the inhibition was 31.1% in experiment [7]; 60% in [8]; -9.82% in experiment [9]; 33.5% in experiment [10]; -4.54% in experiment [11].
Regarding `CC[C@@H]1CN2C(=O)N(C)c3nc(-c4ccccc4)[nH]c3C2=N1`, the inhibition in experiment [1] is 6.19%; in experiment [2], 65.2%; in [3], 53.6%; in [4], 6.33%; in experiment [5], -5.35%; in experiment [6], 10.4%. Also, the inhibition in experiment [7] was -5.22%; in experiment [9], 21.2%; in experiment [12], 9.96%; in experiment [10], 27.9%; in experiment [11] it was 12%.
On to `CCCn1c(=O)c2[nH]c(-c3cnn(Cc4cccc(C(F)(F)F)c4)c3)nc2n(CC)c1=O`, for which the inhibition in [1] is 13.9%; in [2], -2.75%; in experiment [4] it was -2.72%; in experiment [5], -5.87%; in experiment [6], 0.57%; in experiment [7] it was 3.01%. For the same compound, the inhibition is -6.47% in [9] and -3.39% in experiment [12].
Consider `Cc1cccc([C@H](C)c2c[nH]cn2)c1C`, for which the inhibition in [1] is 31.3%; in [2] it was 20.7%; in experiment [3] it was 26.8%; in experiment [5], 54.8%; in experiment [6], 26.9%; in experiment [7], 2.75%. Moreover, the inhibition in experiment [8] was 42.8%; in experiment [9] it was 3.18%; in [12], 11.4%; in experiment [10], 21.5%; in experiment [11], -0.33%.
Regarding `COc1ccc(/C=C/CCCCOc2ccc(C(=O)c3cccc(C(=O)O)c3)cc2CCC(=O)O)cc1`, the inhibition is 29.9% in experiment [1]; 33.6% in experiment [3]; 10.7% in [4]; -5.5% in [5]; 10.8% in [7]; 1.82% in experiment [8]. Besides, the inhibition is 49.6% in [9], 56.1% in experiment [10] and 30.3% in experiment [11].
With `COc1ccc(S(=O)(=O)N2c3ccc(Cl)cc3[C@](O)(c3ccccc3Cl)[C@@H]2C(=O)N2CCC[C@H]2C(N)=O)cc1OC`, the inhibition in [2] is 6.53%; in experiment [3], -2.13%; in experiment [4] it was 16.3%; in [5], 2.62%; in experiment [6], -3.97%; in experiment [7] it was 7.89%. The inhibition was 10.8% in experiment [8], 28.5% in experiment [9], 40.4% in experiment [10] and 8.75% in experiment [11].
Consider `O=C(c1cc2c(cc1F)OC(c1ccc(F)cc1)(c1ccc(Cl)cc1Cl)O2)N1CCOCC1` (stereo not drawn), for which the inhibition in experiment [1] is 27.6%; in [2], 5.79%; in experiment [3], 57.3%; in experiment [4] it was 71.4%; in experiment [6], 29.6%; in experiment [7] it was 21%. Further, the inhibition in [8] was 3.46%; in experiment [9], 8.99%; in experiment [12], 75.9%; in [10], 27.4%; in experiment [11], 5.52%.
`CCCCN(CC)c1nc(C)nc2c1c(C)cn2-c1c(C)cc(C)cc1C`: the inhibition in [1] was -9.74%; in experiment [2], -7.68%; in [3], 9.7%; in experiment [4], 43.2%; in experiment [5], 14.4%; in experiment [7], -0.29%. Further, the inhibition was 16.5% in [8]; 37.8% in experiment [9]; -2.04% in experiment [12]; 18.6% in experiment [10]; -6.24% in experiment [11].
Consider `C/C(=N\NC(=O)[C@@H]1C(=O)NC[C@H]1c1ccccc1)c1cccc(Br)c1`, for which the inhibition is 3.07% in experiment [1]; -2.57% in experiment [2]; 62.6% in experiment [3]; 19.1% in experiment [4]; 2.24% in experiment [6]; 7.14% in experiment [7]. In addition, the inhibition was -1.53% in experiment [8], -3.09% in experiment [9], -9.13% in experiment [12] and 26.4% in experiment [11].
Take `CN(C(=O)Cc1ccc(Cl)c(Cl)c1)C(CN1CCCC1)c1cccc(OCC(=O)O)c1` (stereo not drawn): the inhibition in experiment [1] is 11.1%; in [2] it was -5.04%; in experiment [3] it was 42.8%; in experiment [4], 100%; in experiment [6], -5.18%; in [7], -7.51%. The inhibition is 5.15% in experiment [8], 20.5% in [9], 3.88% in experiment [10] and 24.9% in experiment [11].
As to `Nc1nc(NCCc2ccc(O)cc2)nc2nc(-c3ccco3)nn12`, the inhibition in [1] is 27%; in experiment [2], -3.4%; in [3], 17.1%; in [4], -5.28%; in experiment [5], 2.08%; in experiment [6], 4.31%. Further, the inhibition was 8.13% in [8]; 22.3% in [9]; 27.8% in experiment [12]; 19.9% in experiment [10]; -6.94% in experiment [11].
With `CC(C)(N)C(=O)N[C@H](COCc1ccccc1)C(=O)N1CCC2(CC1)CN(S(C)(=O)=O)c1ccccc12`, the inhibition is -3.52% in experiment [2]; 6.83% in experiment [3]; 17.4% in experiment [4]; 11.4% in [5]; -0.42% in experiment [7]; 9.82% in experiment [8]. Moreover, the inhibition in [9] was 30.4%; in experiment [12] it was -1.48%; in experiment [10], 25.7%; in [11] it was -5.57%.
For `COc1cccc([C@H](O)C2CCN(CCc3ccc(F)cc3)CC2)c1OC`, the inhibition in experiment [1] was 27.7%; in [2], 5.48%; in [5] it was 57.3%; in experiment [6], 43.9%; in [7], 3.17%; in [8], 34.5%. The inhibition in experiment [9] is 32.2%; in experiment [12], 4.09%; in experiment [10], 9.18%; in experiment [11], 3.32%.
